From ChEMBL document CHEMBL5380814, “Targeting Receptor-Interacting Protein Kinase 1 by Novel Benzothiazole Derivatives: Treatment of Acute Lung Injury through the Necroptosis Pathway” (J Med Chem, 2023)
Active and inactive are the calls of the source. The rule behind the calls is not given here.

Columns and labels:
HT-29 [1] = experiment: Anti-necroptotic activity in human HT-29 cells assessed as protection against human TNFalpha/cycloheximide induced necroptosis preincubated with compound upto 10 uM for 16 to 24 hrs followed by TC stimulation for 24 hrs measured by cell-titre glo luminescent cell viability assay; assay type: functional, cell-based; settings: time 40-48 hrs
HT-29 [2] = experiment: Anti-necroptotic activity in human HT-29 cells assessed as inhibition of human TNFalpha/Smac mimetic/Z-VAD-FMK induced necroptosis preincubated with compound for 16 to 24 hrs followed by TSZ stimulation for 12 hrs measured by cell-titre glo luminescent cell viability assay; assay type: functional, cell-based
HT-29 [3] = experiment: Anti-necroptotic activity in human HT-29 cells assessed as inhibition of human TNFalpha/Smac mimetic/Z-VAD-FMK induced necroptosis preincubated with compound upto 50 nM for 16 to 24 hrs followed by TSZ stimulation for 12 hrs measured by cell-titre glo luminescent cell viability assay; assay type: functional, cell-based; settings: time 28-36 hrs
Mus musculus [4] = experiment: In vivo anti-inflammatory activity in NNK induced induced C57BL/6J ALI mouse model assessed as mild alveolar thickening in lung pretreated at 25 to 100 mg/kg, ip for 1 hr followed by NNK administration by HE staining analysis; assay type: functional, organism-based; settings: dose 25-100 mg/kg
Mus musculus [5] = experiment: In vivo anti-necrotoptic activity in NNK induced induced C57BL/6J ALI mouse model assessed as reduction in RIPK1 phosphorylation pretreated at 25 to 100 mg/kg, ip for 1 hr followed by NNK administration; assay type: functional, organism-based; settings: dose 25-100 mg/kg
Mus musculus [6] = experiment: In vivo anti-inflammatory activity in NNK induced induced C57BL/6J ALI mouse model assessed as decrease in wet lung weight pretreated at 25 to 100 mg/kg, ip for 1 hr followed by NNK administration relative to disease model; assay type: functional, organism-based; settings: dose 25-100 mg/kg
[7] = target: T1, Receptor-interacting serine/threonine-protein kinase 1 (Homo sapiens) (UniProt Q13546); experiment: Inhibition of RIPK1 phosphorylation in TSZ-induced human HT-29 cells assessed as blocking of TSZ-induced necrosome formation at 0.5 uM pretreated with compound for 6 hrs followed by TSZ stimulation for 6 hrs measured by Western analysis; assay type: cell-based; settings: time 12.0 hrs
T1 sequence (whole entry): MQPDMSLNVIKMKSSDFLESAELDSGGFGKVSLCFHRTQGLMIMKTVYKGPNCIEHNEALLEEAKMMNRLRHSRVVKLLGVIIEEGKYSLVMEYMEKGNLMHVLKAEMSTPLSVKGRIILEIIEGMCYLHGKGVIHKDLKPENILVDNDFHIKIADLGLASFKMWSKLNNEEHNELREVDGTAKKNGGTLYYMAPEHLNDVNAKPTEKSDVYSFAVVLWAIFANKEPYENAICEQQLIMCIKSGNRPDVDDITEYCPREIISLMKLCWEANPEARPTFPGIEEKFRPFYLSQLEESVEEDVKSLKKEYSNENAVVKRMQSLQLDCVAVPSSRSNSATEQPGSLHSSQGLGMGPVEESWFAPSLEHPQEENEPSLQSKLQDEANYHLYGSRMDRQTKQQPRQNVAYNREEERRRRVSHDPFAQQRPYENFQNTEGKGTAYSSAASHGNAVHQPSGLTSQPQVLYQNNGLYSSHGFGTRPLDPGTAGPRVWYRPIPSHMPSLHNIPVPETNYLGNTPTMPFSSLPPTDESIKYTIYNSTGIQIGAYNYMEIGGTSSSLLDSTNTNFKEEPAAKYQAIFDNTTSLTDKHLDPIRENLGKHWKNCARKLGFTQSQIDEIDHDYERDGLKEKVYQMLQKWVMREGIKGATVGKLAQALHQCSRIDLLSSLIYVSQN

Mus musculus [8] = experiment: In vivo anti-necrotptic activity in mTNFalpha induced C57BL/6J SIRS mouse model assessed as protection from body temperature loss pretreated at 20 mg/kg, po for 1 hr followed by mTNFalpha/Z-VAD-FMK administration measured after 45 mins by electric thermometer; assay type: functional, organism-based; settings: time 105.0 min
HT-29 [9] = experiment: Anti-necroptotic activity in human HT-29 cells assessed as protection against human TNFalpha/cycloheximide/Z-VAD-FMK induced necroptosis preincubated with compound at 0.3 uM for 16 to 24 hrs followed by TCZ stimulation for 16 hrs measured by cell-titre glo luminescent cell viability assay relative to control; assay type: functional; settings: time 32-40 hrs
Mus musculus [10] = experiment: In vivo anti-necrotptic activity in mTNFalpha induced C57BL/6J SIRS mouse model assessed as survival rate pretreated at 20 mg/kg, po for 1 hr followed by mTNFalpha/Z-VAD-FMK administration measured after 40 mins relative to control; assay type: functional; settings: time 100 min, 1.667 h
Mus musculus [11] = experiment: In vivo anti-necrotptic activity in mTNFalpha induced C57BL/6J SIRS mouse model assessed as reduction in serum IL-6 level pretreated at 5 to 20 mg/kg, po for 1 hr followed by mTNFalpha/Z-VAD-FMK administration measured after 3 hrs by ELISA analysis; assay type: functional, organism-based; settings: dose 5-20 mg/kg, time 4.0 hrs
L929 = experiment: Anti-necroptotic activity in mouse L929 cells assessed as inhibition of mouse TNFalpha/Z-VAD-FMK induced necroptosis preincubated with compound for 16 to 24 hrs followed by TZ stimulation for 12 hrs measured by cell-titre glo luminescent cell viability assay; assay type: functional, cell-based; settings: dose 6.3-800 nM, time 28-36 hrs
Mus musculus [12] = experiment: In vivo anti-inflammatory activity in NNK induced induced C57BL/6J ALI mouse model assessed as decrease in dry lung weight pretreated at 25 to 100 mg/kg, ip for 1 hr followed by NNK administration relative to disease model; assay type: functional, organism-based; settings: dose 25-100 mg/kg
Mus musculus [13] = experiment: In vivo anti-necrotptic activity in mTNFalpha induced C57BL/6J SIRS mouse model assessed as protection from body temperature loss pretreated at 10 mg/kg, po for 1 hr followed by mTNFalpha/Z-VAD-FMK administration measured after 45 mins by electric thermometer; assay type: functional, organism-based; settings: time 105.0 min
Mus musculus [14] = experiment: In vivo anti-inflammatory activity in NNK induced induced C57BL/6J ALI mouse model assessed as lung injury score pretreated at 25 mg/kg, ip for 1 hr followed by NNK administration relative to disease model (reference value: 5.7 +/- 0.5); assay type: functional
Mus musculus [15] = experiment: In vivo anti-necrotptic activity in mTNFalpha induced C57BL/6J SIRS mouse model assessed as survival rate pretreated at 10 mg/kg, po for 1 hr followed by mTNFalpha/Z-VAD-FMK administration measured after 40 mins relative to control; assay type: functional; settings: time 100 min, 1.667 h
HT-29 [16] = experiment: Anti-necroptotic activity in TSZ induced human HT-29 cells assessed as inhibition of necrosome formation preincubated with compound at 1 uM for 6 hrs followed by TSZ stimulation for 6 hrs measured by cell-titre glo luminescent cell viability assay; assay type: functional, cell-based; settings: time 12.0 hrs
Mus musculus [17] = experiment: In vivo anti-inflammatory activity in NNK induced induced C57BL/6J ALI mouse model assessed as decrease in lung IL-6 mRNA level pretreated at 25 to 100 mg/kg, ip for 1 hr followed by NNK administration; assay type: functional, organism-based; settings: dose 25-100 mg/kg

With CCS(=O)(=O)NC1CCC(C(=O)Nc2nc3cc(F)c(Oc4ccc(F)c(NC(=O)Cc5cccc(C(F)(F)F)c5)c4)cc3s2)CC1 (stereo not drawn) the Activity (HT-29 [1]) was “inactive”, the EC50 (HT-29 [2]) was 22.4 nM and the Activity (HT-29 [3]) was “Dose-Dependent Effect”. For the same molecule, the Activity (Mus musculus [4]) was “Active”, the Activity (Mus musculus [5]) was “Active” and the Activity (Mus musculus [6]) was “Active”. The inhibition [7] was “Active”, the Activity (Mus musculus [8]) was “Active” and the Activity (HT-29 [9]) was >50%. For the same molecule, the Activity (Mus musculus [10]) was 100%, the Activity (Mus musculus [11]) was “Active” and the Activity (L929) was “Dose-Dependent Effect”. The Activity (Mus musculus [12]) was “Active”, the Activity (Mus musculus [13]) was “Active” and the Activity (Mus musculus [14]) was 4.3. For the same molecule, the Activity (Mus musculus [15]) was 90%, the Activity (HT-29 [16]) was “Active” and the Activity (Mus musculus [17]) was “Active”.
